Data: patent EP2949319A1, “PHARMACEUTICAL COMPOSITIONS COMPRISING AN ACTIVE AGENT” (Galenicum Health S.L., priority 2014, dated 2015)
Converted amounts (≈) assume the structure as drawn.

How the values were obtained:
[1] = Dissolution of the active agent in the capsule fill (glycerol monocaprylocaprate, BHT); type: physicochemical; conditions: glycerol monocaprylocaprate and BHT, 20-23 °C, stirred
Excerpt: Another advantage of the process as herein disclosed is that it is highly reproducible and robust independently of the water content of the active agent. […] However, when the active agent has a water content higher than 0.05% measured by Karl Fischer titration, the components of the fill are completely dissolved at the same range of temperatures. Furthermore, the inventors have been able to establish an optimum range of working temperatures able to obtain a fill solution completely dissolved homogeneously with active agents with a water content higher than 0.05 % w/w.
• Glycerol monocaprylocaprate was added to a stainless steel tank equipped with cooling jacket to keep it at a temperature of 20-23 °C. It was stirred until completely dissolved. • Butylhydroxytoluene (BHT) was added to the tank and stirred until completely dissolved. • Finally dutasteride anhydrous was added to the tank. • The resulting solution was kept at a range of temperature of 20-23 °C. […] Water content of the active agent and the range of temperatures were studied to avoid dissolution problems.

[2] = cited from earlier work

| Structure (SMILES) | dissolution in the capsule fill solution [1] | solubility in water [2] [ng/mL] |
| --- | --- | --- |
| C[C@]12C=CC(=O)N[C@@H]1CC[C@@H]1[C@@H]2CC[C@]2(C)[C@@H](C(=O)Nc3cc(C(F)(F)F)ccc3C(F)(F)F)CC[C@@H]12 [dutasteride anhydrous, 17-beta-N-[2,5-bis(trifluoromethyl)]phenylcarbamoyl-4-aza-5-alpha-androst-1-en-3-one] | not possible to obtain a completely dissolved solution | – |
| C[C@]12C=CC(=O)N[C@@H]1CC[C@@H]1[C@@H]2CC[C@]2(C)[C@@H](C(=O)Nc3cc(C(F)(F)F)ccc3C(F)(F)F)CC[C@@H]12 [Dutasteride, 17-beta-N-[2,5-bis(trifluoromethyl)]phenylcarbamoyl-4-aza-5-alpha-androst-1-en-3-one] | – | 0.38 (≈ 0.719 nM) |
